# Results: the OligoGym collection
# Where “and” joins values, the source holds several entries; their conditions need not be identical. Equal values may be shown once. After the bases stand the sugars from the 5' end (letter, count) and the backbone: PS all phosphorothioate, else s phosphorothioate and o phosphodiester by linkage. Methylation of C is not given here. e = 2'-O-(2-methoxyethyl) (MOE); k = constrained ethyl (cEt); d = 2'-deoxy (DNA)
# Target: IRF4
# Conditions: ASO, MM.1R, 0.0625 µM
row,Sequence,target mRNA inhibition
1,"GGATTGATGTGATAGC (sugars k3 d10 k3, PS)",7% and 24%

# Same assay, conditions: ASO, MM.1R, 0.25 µM
row,Sequence,target mRNA inhibition
1,"GGATTGATGTGATAGC (sugars k3 d10 k3, PS)",24% and 20%

# Same assay, conditions: ASO, MM.1R, 1 µM
row,Sequence,target mRNA inhibition
1,"AGGCACATCAATGTTT (sugars kddddddddddkekek, PS)",5%
2,"ACTACCTGCAGCCAAG (sugars k3 d10 k3, PS)",4%
3,"CACATCAATGTTTTAG (sugars kkdddddddddkekek, PS)",19% and 34%
4,"AATAAAATGTCACGCC (sugars k3 d10 k3, PS)",20%
5,"CCTTACCTGACAAGAA (sugars k3 d10 k3, PS)",-11%
6,"CCACAATCAGCAAGTC (sugars k3 d10 k3, PS)",0%
7,"TAAGATCCCACGAAGG (sugars k3 d10 k3, PS)",9%
8,"TGTGATAGCTGAGCTG (sugars kkdddddddddkekek, PS)",17%
9,"GGATTGATGTGATAGC (sugars k3 d10 k3, PS)",59% and 60%
10,"TTTATGTTAGCCAATT (sugars kkddddddddddkeke, PS)",11% and -5%
11,"TGGAGAAGTCCCGTGG (sugars k3 d10 k3, PS)",-9%
12,"ACCTACACAGGCTAAT (sugars k3 d10 k3, PS)",-4%
13,"CCTCAGTTTGTGAAGC (sugars kdddddddddkekeke, PS)",11%

# Same assay, conditions: ASO, MM.1R, 4 µM
row,Sequence,target mRNA inhibition
1,"GGATTGATGTGATAGC (sugars k3 d10 k3, PS)",88%

# Same assay, conditions: ASO, SK-MEL-28, 4 µM
row,Sequence,target mRNA inhibition
1,"CATTCTAACAGATAAC (sugars k3 d10 k3, PS)",-2%
2,"CACTAAGTGGGCTCTG (sugars k3 d10 k3, PS)",41%
3,"GCAATTAGCTCTTCTA (sugars k3 d10 k3, PS)",21%
4,"TCATACCCTGGATCAC (sugars k3 d10 k3, PS)",43%
5,"AGGCACGGCTTCAGTC (sugars k3 d10 k3, PS)",49%
6,"CTATATAAAAAGTGGG (sugars k3 d10 k3, PS)",16%
7,"ACCTTATGCTTGGCTC (sugars k4 d8 k4, PS)",30%
8,"GCACACACAAGTGGCC (sugars k3 d10 k3, PS)",64%
9,"TCCTTTAAACAGTGCC (sugars k3 d10 k3, PS)",50%
10,"CCTGTCACCTGGCAAC (sugars k4 d8 k4, PS)",37%
11,"GGCACAGCCGTCCGCC (sugars k3 d10 k3, PS)",11%
12,"TAATTATGCAGAAGCT (sugars k3 d10 k3, PS)",-3%
13,"GCCGAGATATAAATAG (sugars k3 d10 k3, PS)",40%
14,"CTCCAGGGATGGAACA (sugars k3 d10 k3, PS)",19%
15,"GGACGAACGCGCAAAA (sugars k3 d10 k3, PS)",35%
16,"ATATTCCAACAGGCGG (sugars k3 d10 k3, PS)",53%
17,"AGGGAATCCCTTATTA (sugars k3 d10 k3, PS)",6%
18,"TTAAGAGGCGACTGCT (sugars k3 d10 k3, PS)",12%
19,"TCCATAGATCAACATG (sugars k3 d10 k3, PS)",45%
20,"AATAAAGACCTTAACC (sugars k3 d10 k3, PS)",11%
21,"ACAGGACCTGGTCCAG (sugars k4 d8 k4, PS)",7%
22,"TCCAAAGCATAGAGTC (sugars k3 d10 k3, PS)",53%
23,"GACAAATCTTCTGCCT (sugars k3 d10 k3, PS)",26%
24,"CCTGAGTATTTCATAG (sugars k3 d10 k3, PS)",42%
25,"CCATTACTTAGACATT (sugars k3 d10 k3, PS)",64%
26,"TTCTTTATGCGAAGAA (sugars k3 d10 k3, PS)",9%
27,"ATGTAAGTGATAGGTA (sugars k3 d10 k3, PS)",70%
28,"TACTCACGAGCACCTC (sugars k3 d10 k3, PS)",41%
29,"GGCAGACCTTATGCTT (sugars k3 d10 k3, PS)",21%
30,"TCATGATATTAGAGAC (sugars k3 d10 k3, PS)",35%
